Test results as given in the supplement of paper PMC10307832.

Experiments:
Assay in all cases: relative viability (nuclei count vs DMSO), 5 days (fraction); higher = more cells survive
Pictilisib + Navitoclax = compound: CS(=O)(=O)N1CCN(Cc2cc3nc(-c4cccc5[nH]ncc45)nc(N4CCOCC4)c3s2)CC1 [Pictilisib] + CC1(C)CCC(c2ccc(Cl)cc2)=C(CN2CCN(c3ccc(C(=O)NS(=O)(=O)c4ccc(N[C@H](CCN5CCOCC5)CSc5ccccc5)c(S(=O)(=O)C(F)(F)F)c4)cc3)CC2)C1 [Navitoclax] (partner 0.5 µM)
In short: (§1)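 Values are medians from duplicate plates. Each reflects relative viability, defined as the nuclei count of treated wells over that of vehicle wells. Lung cancer cell lines in 1536-well plates were pin-tool dosed one day after seeding with one drug alone or with a fixed anchor-drug dose plus five library-drug doses (not always all listed) in √10 steps, then fixed, stained and imaged at 4× after 5 days.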

Pictilisib + Foretinib = compound: CS(=O)(=O)N1CCN(Cc2cc3nc(-c4cccc5[nH]ncc45)nc(N4CCOCC4)c3s2)CC1 [Pictilisib] + COc1cc2c(Oc3ccc(NC(=O)C4(C(=O)Nc5ccc(F)cc5)CC4)cc3F)ccnc2cc1OCCCN1CCOCC1 [Foretinib] (partner 0.25 µM)
In short: as §1

MK-2206 + Bortezomib = compound: NC1(c2ccc(-c3nc4ccn5c(=O)[nH]nc5c4cc3-c3ccccc3)cc2)CCC1 [MK-2206] + CC(C)C[C@H](NC(=O)[C@H](Cc1ccccc1)NC(=O)c1cnccn1)B(O)O [Bortezomib] (partner 0.002 µM)
In short: as §1

MK-2206 + Lapatinib = compound: NC1(c2ccc(-c3nc4ccn5c(=O)[nH]nc5c4cc3-c3ccccc3)cc2)CCC1 [MK-2206] + CS(=O)(=O)CCNCc1ccc(-c2ccc3ncnc(Nc4ccc(OCc5cccc(F)c5)c(Cl)c4)c3c2)o1 [Lapatinib] (partner 2 µM)
In short: as §1

Pictilisib + AZD7762 = compound: CS(=O)(=O)N1CCN(Cc2cc3nc(-c4cccc5[nH]ncc45)nc(N4CCOCC4)c3s2)CC1 [Pictilisib] + NC(=O)Nc1cc(-c2cccc(F)c2)sc1C(=O)N[C@H]1CCCNC1 [AZD7762] (partner 0.2 µM)
In short: as §1

Row | Cell Line | relative viability (Pictilisib + Navitoclax; first compound 0.02 µM) | relative viability (Pictilisib + Navitoclax; first compound 0.06325 µM) | relative viability (Pictilisib + Navitoclax; first compound 0.6325 µM) | relative viability (Pictilisib + Navitoclax; first compound 2 µM) | relative viability (Pictilisib + Foretinib; first compound 0.02 µM) | relative viability (Pictilisib + Foretinib; first compound 0.06325 µM) | relative viability (Pictilisib + Foretinib; first compound 0.6325 µM) | relative viability (Pictilisib + Foretinib; first compound 2 µM) | relative viability (MK-2206 + Bortezomib; first compound 0.01 µM) | relative viability (MK-2206 + Bortezomib; first compound 0.03162 µM) | relative viability (MK-2206 + Bortezomib; first compound 0.3162 µM) | relative viability (MK-2206 + Bortezomib; first compound 1 µM) | relative viability (MK-2206 + Lapatinib; first compound 0.01 µM) | relative viability (MK-2206 + Lapatinib; first compound 0.03162 µM) | relative viability (MK-2206 + Lapatinib; first compound 0.3162 µM) | relative viability (MK-2206 + Lapatinib; first compound 1 µM) | relative viability (Pictilisib + AZD7762; first compound 0.02 µM) | relative viability (Pictilisib + AZD7762; first compound 0.06325 µM) | relative viability (Pictilisib + AZD7762; first compound 0.6325 µM) | relative viability (Pictilisib + AZD7762; first compound 2 µM)
1 | NCI-H2023 | 0.959 | 0.965 | 0.734 | 0.313 | 0.838 | 0.804 | 0.578 | 0.183 | 0.958 | 0.838 | 0.778 | 0.612 | 0.827 | 0.818 | 0.708 | 0.492 | – | – | – | –
2 | Calu-6 | 0.911 | 0.855 | 0.656 | 0.569 | 0.979 | 0.959 | 0.834 | 0.703 | 0.991 | 1.08 | 1.01 | 1.15 | 1.05 | 1.13 | 1.09 | 0.974 | – | – | – | –
3 | SW 900 | – | – | – | – | 0.93 | 0.815 | 0.774 | 0.533 | – | – | – | – | – | – | – | – | 0.747 | 0.623 | 0.431 | 0.352
4 | SK-MES-1 | 1.21 | 1.19 | 0.89 | 0.431 | 1.02 | 0.86 | 0.494 | 0.271 | – | – | – | – | 0.461 | 0.452 | 0.429 | 0.38 | – | – | – | –
5 | NCI-H1650 | 1.21 | 1.19 | 0.828 | 0.31 | 1.25 | 1.39 | 1.03 | 0.441 | 0.196 | 0.195 | 0.207 | 0.2 | 0.685 | 0.768 | 0.687 | 0.784 | – | – | – | –
6 | NCI-H2342 | – | – | – | – | 0.991 | 1.02 | 0.805 | 0.539 | – | – | – | – | – | – | – | – | 0.444 | 0.515 | 0.34 | 0.414
7 | SW 1573 | 0.804 | 0.951 | 0.742 | 0.348 | 0.865 | 0.805 | 0.706 | 0.501 | 0.948 | 1.04 | 0.834 | 0.629 | 0.88 | 1.15 | 0.987 | 0.982 | – | – | – | –
8 | IA-LM | 0.777 | 0.898 | 0.766 | 0.309 | 1.2 | 1.14 | 0.894 | 0.518 | 0.868 | 0.928 | 0.887 | 0.699 | – | 0.765 | 0.695 | 0.438 | – | – | – | –
9 | NCI-H520 | 1.17 | 1.24 | 0.599 | 0.134 | 0.695 | 0.694 | 0.4 | 0.244 | 0.485 | 0.675 | 0.431 | 0.242 | 0.85 | 0.874 | 0.415 | 0.238 | – | – | – | –
10 | EBC-1 | 0.38 | 0.412 | 0.164 | 0.126 | 0.122 | 0.0955 | 0.112 | 0.115 | 0.603 | 0.47 | 0.345 | 0.197 | 0.217 | 0.2 | 0.174 | 0.224 | – | – | – | –
11 | NCI-H2009 | 1.16 | 1.19 | 1.15 | 0.958 | 1.28 | 1.17 | 1.13 | 0.812 | 0.969 | 1.03 | 1.12 | 0.94 | 0.825 | 1.01 | 0.936 | 0.986 | – | – | – | –
12 | SK-LU-1 | 0.972 | 1.04 | 0.624 | 0.41 | 0.878 | 0.892 | 0.652 | 0.422 | 1.28 | 1.22 | 1.01 | 0.747 | 0.91 | 0.861 | 0.822 | 0.967 | – | – | – | –
13 | NCI-H2228 | 0.948 | 0.563 | 0.59 | 0.181 | 0.853 | 0.917 | 0.496 | 0.291 | 0.973 | 1.04 | 0.643 | 0.413 | 1.12 | 1.01 | 0.641 | 0.373 | – | – | – | –
14 | A549 | 1.32 | 1.25 | 0.919 | 0.401 | 1.04 | 0.937 | 0.771 | 0.431 | – | – | – | – | 0.874 | 0.988 | 0.932 | 0.81 | – | – | – | –
15 | NCI-H1563 | – | – | – | – | 0.839 | 0.935 | 0.674 | 0.532 | 0.869 | 0.947 | 0.636 | 0.768 | 0.843 | 0.911 | 0.783 | 0.711 | – | – | – | –
16 | NCI-H1299 | 1.09 | 1.05 | 1.1 | 1.13 | 1.06 | 1.19 | 1.22 | 1.06 | 1.04 | 1.02 | 1.09 | 1 | 0.963 | 0.946 | 1 | 1.02 | – | – | – | –
17 | NCI-H661 | – | – | – | – | 1.01 | 1.06 | 1.05 | 0.645 | 0.857 | 0.864 | 0.862 | 0.989 | 0.422 | 0.581 | 0.503 | 0.51 | – | – | – | –
18 | NCI-H522 | – | – | – | – | – | – | – | – | – | – | – | – | – | – | – | – | 0.967 | 0.865 | 0.673 | 0.571
19 | NCI-H1648 | – | – | – | – | – | – | – | – | – | – | – | – | – | – | – | – | 0.777 | 0.735 | 0.56 | 0.316
20 | COR-L23 | 1.1 | 1.15 | 0.949 | 0.561 | 1.01 | 1.07 | 0.979 | 0.934 | 0.913 | 1 | 1.18 | 0.989 | 0.949 | 1.03 | 0.92 | 1.1 | – | – | – | –
21 | NCI-H1623 | – | – | – | – | 0.773 | 0.792 | 0.639 | 0.348 | – | – | – | – | – | – | – | – | – | – | – | –
22 | COR-L 105 | 0.739 | 0.77 | 0.679 | 0.521 | 1.08 | 1.09 | 0.996 | 0.49 | 0.766 | 0.725 | 0.997 | 0.843 | 0.382 | 0.42 | 0.317 | 0.335 | – | – | – | –
